The results in this text go back to PubChem BioAssay (NCI).

Test systems include MOLT-4 leukemia; HCT-116 colon; MDA-MB-435; HL-60(TB) leukemia; CAKI-1 renal; A549 NSCLC; TK-10 renal; NCI-H226 lung; ACHN renal; OVCAR-3 ovarian.
What all share (test): inhibition of tumour cell growth, NCI panel, 48 h

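Growth conditions: 96-well plates. Treatment: test compound, 48 hours, 5 concentrations. Analysis: linear interpolation between bracketing concentrations; unreached endpoints set to highest concentration. GI50: concentration for 50% inhibition of growth. TGI: total growth inhibition.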

Consider `O=C1C=CC[C@H](/C=C/c2ccccc2)O1`, for which the TGI in the assay on MOLT-4 leukemia is greater than 100 µM; in the assay on HCT-116 colon it was 13.9 µM; with MDA-MB-435, 14.8 µM; in the assay with HL-60(TB) leukemia it was greater than 34 µM; with CAKI-1 renal it was 14.4 µM; in the assay on A549 NSCLC, greater than 100 µM. Further, the TGI in the assay with TK-10 renal is greater than 53.2 µM; with NCI-H226 lung it was 4.31 µM; in the assay with ACHN renal it was 16.6 µM; in the assay on OVCAR-3 ovarian, 7.31 µM. Also, the GI50 in the assay with HCT-116 colon is 1.72 µM; in the assay with MDA-MB-435, 1.81 µM; with CAKI-1 renal, 1.05 µM; in the assay with A549 NSCLC it was 3.56 µM; with TK-10 renal, 11.5 µM; in the assay on NCI-H226 lung, 0.787 µM. Also, the GI50 is 4.04 µM with ACHN renal and 1.94 µM in the assay with OVCAR-3 ovarian.
For `O=Cc1ccccc1B(O)O`, the TGI in the assay on MOLT-4 leukemia was 26.1 µM; in the assay on HCT-116 colon, greater than 100 µM; in the assay on MDA-MB-435 it was greater than 100 µM; in the assay on HL-60(TB) leukemia, greater than 100 µM; in the assay with CAKI-1 renal, greater than 100 µM; in the assay on A549 NSCLC it was 38.5 µM. For the same compound, the TGI in the assay with TK-10 renal, with NCI-H226 lung, with ACHN renal and in the assay with OVCAR-3 ovarian was greater than 100 µM throughout.
Regarding `NC1=C(c2nc(-c3ccccc3)cs2)C(c2ccc(Br)cc2)c2c(c3ccccc3oc2=O)O1` (stereo not drawn), the GI50 is 33 µg/mL in the assay on MOLT-4 leukemia; 79.6 µg/mL in the assay with HCT-116 colon; greater than 150 µg/mL in the assay with MDA-MB-435; 21.9 µg/mL in the assay with HL-60(TB) leukemia; 70 µg/mL with CAKI-1 renal; 46 µg/mL in the assay with A549 NSCLC. Moreover, the GI50 with TK-10 renal is greater than 150 µg/mL; with NCI-H226 lung, 22.3 µg/mL; with ACHN renal it was 129 µg/mL; in the assay with OVCAR-3 ovarian, greater than 150 µg/mL. Moreover, the TGI in the assay with MOLT-4 leukemia is 118 µg/mL; in the assay with HCT-116 colon it was greater than 150 µg/mL; with MDA-MB-435, greater than 150 µg/mL; in the assay on HL-60(TB) leukemia, 97.2 µg/mL; in the assay with CAKI-1 renal, greater than 150 µg/mL; in the assay on A549 NSCLC, greater than 150 µg/mL. For the same compound, the TGI in the assay with TK-10 renal was greater than 150 µg/mL; in the assay on NCI-H226 lung, 94 µg/mL; in the assay with ACHN renal, greater than 150 µg/mL; in the assay with OVCAR-3 ovarian it was greater than 150 µg/mL.
As to `O=P(CCCCP(=O)(c1ccccc1)c1ccccc1)(c1ccccc1)c1ccccc1.[Cl][Sn]([Cl])([c]1ccccc1)[c]1ccccc1`, the GI50 is 2.06 µM in the assay on MOLT-4 leukemia; 1.71 µM with HCT-116 colon; 1.77 µM in the assay on MDA-MB-435; 2.04 µM in the assay on HL-60(TB) leukemia; 0.661 µM in the assay with CAKI-1 renal; 3.59 µM in the assay on A549 NSCLC. In addition, the GI50 in the assay with TK-10 renal is 1.77 µM; in the assay with NCI-H226 lung, 5.07 µM; in the assay on ACHN renal, 1.86 µM; in the assay on OVCAR-3 ovarian it was 1.61 µM. In addition, the TGI in the assay on MOLT-4 leukemia was greater than 100 µM; with HCT-116 colon it was greater than 100 µM; in the assay on MDA-MB-435 it was 3.91 µM; with HL-60(TB) leukemia, 6.61 µM; with CAKI-1 renal, 3.32 µM; with A549 NSCLC it was greater than 23.6 µM. The TGI in the assay with TK-10 renal worked out at 3.32 µM; in the assay with NCI-H226 lung, 11.3 µM; with ACHN renal it was 3.53 µM; in the assay with OVCAR-3 ovarian it was 3.99 µM.
In the case of `CN(C)CCCN1c2ccccc2C(C)(C)c2ccccc21`, the TGI amounted to 26.6 µM in the assay on MOLT-4 leukemia; 27.9 µM with HCT-116 colon; 27.4 µM in the assay with MDA-MB-435; 33.6 µM in the assay with HL-60(TB) leukemia; 25.5 µM in the assay with CAKI-1 renal; 30.7 µM with A549 NSCLC. The TGI in the assay with TK-10 renal stood at 27.2 µM; with NCI-H226 lung, 29.7 µM; in the assay on ACHN renal, 28.6 µM; in the assay on OVCAR-3 ovarian, 28.9 µM.
With `Cc1ccc2c(c1)C(C)Cc1c(Cl)ncnc1N2C` (stereo not drawn), the GI50 in the assay on MOLT-4 leukemia is 3.37 µM; with HCT-116 colon, 3.01 µM; in the assay with MDA-MB-435, 2.23 µM; in the assay with HL-60(TB) leukemia it was 3.07 µM; with CAKI-1 renal, 3.22 µM; in the assay on A549 NSCLC, 4.26 µM. Besides, the GI50 in the assay on TK-10 renal is 4.32 µM; with NCI-H226 lung it was 2.03 µM; with ACHN renal it was 3.7 µM; in the assay with OVCAR-3 ovarian, 2.26 µM. Besides, the TGI was greater than 100 µM with MOLT-4 leukemia; 14.2 µM with HCT-116 colon; 5.63 µM with MDA-MB-435; 71.8 µM in the assay with HL-60(TB) leukemia; greater than 100 µM in the assay on CAKI-1 renal; greater than 100 µM in the assay with A549 NSCLC. Also, the TGI in the assay on TK-10 renal was 34.4 µM; with NCI-H226 lung, 5.34 µM; in the assay on ACHN renal, greater than 100 µM; with OVCAR-3 ovarian, 5.4 µM.
For `COC(=O)C1=C(C(=O)OC)SC(=C(Cl)C(=S)Nc2ccccc2O)S1`, the GI50 with MOLT-4 leukemia was 46.8 µM; in the assay on HCT-116 colon, 0.143 µM; in the assay with MDA-MB-435 it was 3.82 µM; with HL-60(TB) leukemia, 16.6 µM; in the assay on CAKI-1 renal, 9.63 µM; in the assay with A549 NSCLC, 21.2 µM. The GI50 in the assay on TK-10 renal is 7.05 µM; with NCI-H226 lung, 13.9 µM; with ACHN renal, 16.3 µM; in the assay on OVCAR-3 ovarian, 7.41 µM. The TGI in the assay on MOLT-4 leukemia is greater than 50 µM; in the assay on HCT-116 colon it was greater than 50 µM; with MDA-MB-435 it was 17 µM; in the assay on HL-60(TB) leukemia, greater than 50 µM; with CAKI-1 renal it was 21.8 µM; with A549 NSCLC, greater than 50 µM. The TGI with TK-10 renal is 23.9 µM; in the assay on NCI-H226 lung, 39.3 µM; in the assay with ACHN renal, greater than 50 µM; with OVCAR-3 ovarian, 22.8 µM.
On to `Clc1ccc2nnnn2n1`, for which the GI50 in the assay with MOLT-4 leukemia is 3.26 µM; in the assay with HCT-116 colon, 2.06 µM; in the assay on MDA-MB-435 it was 2.13 µM; with HL-60(TB) leukemia, 1.94 µM; in the assay on CAKI-1 renal, 10.1 µM; with A549 NSCLC it was 13.9 µM. Further, the GI50 with TK-10 renal is 3.5 µM; in the assay with NCI-H226 lung it was 4.84 µM; in the assay with ACHN renal, 5.27 µM; in the assay on OVCAR-3 ovarian it was 2.6 µM. Further, the TGI was 44.5 µM in the assay on MOLT-4 leukemia; 4.46 µM with HCT-116 colon; 5.39 µM with MDA-MB-435; 5.14 µM in the assay on HL-60(TB) leukemia; 22.8 µM in the assay on CAKI-1 renal; greater than 100 µM in the assay on A549 NSCLC. For the same compound, the TGI turned out to be 23.6 µM in the assay on TK-10 renal, 35.9 µM in the assay with NCI-H226 lung, 19.5 µM in the assay on ACHN renal and 6.66 µM with OVCAR-3 ovarian.
`Cc1cc(Cc2cc(C)cc(C(C)(C)C)c2O)c(O)c(Cc2cc(C)cc(C(C)(C)C)c2O)c1`: the TGI in the assay on MOLT-4 leukemia is 5.83 µM; in the assay on HCT-116 colon it was 5.44 µM; with MDA-MB-435, 8.57 µM; with HL-60(TB) leukemia it was 5.23 µM; in the assay with CAKI-1 renal, 13.5 µM; with A549 NSCLC it was 11.3 µM. For the same compound, the TGI in the assay with TK-10 renal came out at 8.59 µM; with NCI-H226 lung, 11.5 µM; in the assay with ACHN renal, 11.3 µM; in the assay on OVCAR-3 ovarian, 10.4 µM.
